Measurements reported in patent EP3685668B1, “COMPOSITION COMPRISING ACIBENZOLAR-S-METHYL AS EFFECTIVE INGREDIENT FOR CONTROLLING BURSAPHELENCHUS XYLOPHILUS DISEASE AND METHOD FOR CONTROLLING BURSAPHELENCHUS XYLOPHILUS USING SAME” (Industry Foundation of Chonnam National University, priority 2017, dated 2019).

Columns and labels:
Experiment in all cases: qRT-PCR expression of induced resistance gene in pine tree callus
Type in all cases: cell-based
Conditions in all cases: 200 µg/mℓ, 24 hours
PR_2 family = test system: PR_2 family
Procedure: (§1) For in vitro analysis of induced resistance, the expression of PR genes and other plant defense-related genes was determined, which are evolved in various defense mechanisms including induced resistance. The primers of sixteen induced resistance-related genes of pine tree used in this invention were listed in the below and elongation factor_1 alpha were used as a reference gene. [Table 4] The primer list of defense resistance-related genes
(§2) After the treatment with 200 µg / mℓ of candidates of the selected induced resistance material, expression of the induced resistance-related gene in pine callus was determined by qRT-PCR using the primer pairs of defense resistance-related genes in Table 4. As a candidate group of an induced resistance material in pine tree, acibenzolar-S-methyl (ASM), TDL (Tiadinil), ITL (Isotianil), PBZ (Probenzole), AZO (Azoxystrobin), VMA (Validamycin A), MeJA (Methyl jasmonate), BABA (DL-3-aminobutyric acid), 2,3-BDO (2,3-Butanediol), GABA (r-Aminobutyric acid), glucan (Glucan), ER (Ergosterol), and AZA (Azelaic acid) were used. For the in vitro analysis of the expression of induced resistance gene in pine callus, the selected induced resistance materials were applied with 500 µℓ of LM liquid medium on a surface of pine tree callus (100 mg) in 12-well microplate to give final concentration of 200 µg/mℓ. Then, the callus surface was sufficiently reacted for 24 hours with the candidate of pine tree induced resistance material by shaking at 50 rpm in a 25 °C shaking incubator under dark condition. RNAs were extracted from the callus after completion of the reaction with an induced resistance material, followed by synthesis of cDNAs. Then, by carrying out qRT-PCR, the expression of induced resistance genes was determined. [Table 5] Expression of induced resistance gene in pine tree callus by TDL, PBZ, ASM, ITL, AZO, VMA, glucan, and AZA
(§3) Based on the results of assay using young plants and gene expression by selected induce resistance materials, it seemed that acibenzolar-S-methyl had the most excellent effect. Thus, the following tests were carried out using acibenzolar-S-methyl only. Expression of the induced resistance genes at different culture time after the chemical treatment was examined. For the in vitro assay, LM medium containing pine tree callus was treated with acibenzolar-S-methyl at concentration of 200 µg / mℓ, followed by reaction for 1 day, 7 days, or 14 days in a 25°C shaking incubator under dark condition. RNAs were extracted from the callus after the reaction followed by synthesis of cDNAs. Then, by carrying out qRT-PCR, the expression of the induced resistance genes was determined. Depending on reaction time after the treatment, i.e., after 1 day, 7 days, or 14 days, the expression of the obtained induced resistance genes was examined. As a result of the in vitro callus assay depending on reaction time after the treatment with acibenzolar-S-methyl, the expression of the induced resistance-related genes is the highest at 1 day after the treatment with acibenzolar-S-methyl and gradually diminished over time, as it is shown in Table 7. In this regard, it is contemplated that the expression of genes acquired by acibenzolar-S-methyl is not maintained in highly expressed state until the pathogen invasion and just memorized with at minimum level so that the energy consumption by plant can be efficiently managed. [Table 7] Expression of induced resistance gene in pine tree callus by acibenzolar-S-methyl depending on reaction time
(§4) To have an in vitro assay according to different methods of treatment with acibenzolar-S-methyl, two separate treatment methods, i.e., surface treatment (spraying treatment) of pine tree callus and direct application of the induced resistance material to an LM medium containing pine tree callus, were performed. […]

Heat shock 70 = test system: Heat shock 70
Procedure: as §1, §2, §3, §4

PR_5 family = test system: PR_5 family
Procedure: as §1, §2, §3, §4

PR_10 family = test system: PR_10 family
Procedure: as §1, §2, §3, §4

PR_9 family = test system: PR_9 family
Procedure: as §1, §2, §3, §4

Hydroxyproline = test system: Hydroxyproline
Procedure: as §1, §2, §3, §4

Extensin = test system: Extensin
Procedure: as §1, §2, §3, §4

PR_4 family = test system: PR_4 family
Procedure: as §1, §2, §3, §4

PR_1b family = test system: PR_1b family
Procedure: as §1, §2, §3, §4

Metallothionein = test system: Metallothionein
Procedure: as §1, §2, §3, §4

PR_3 family class 4 = test system: PR_3 family class 4
Procedure: as §1, §2, §3, §4

PR_3 family class 1 = test system: PR_3 family class 1
Procedure: as §1, §2, §3, §4

Xyloglucan = test system: Xyloglucan
Procedure: as §1, §2, §3, §4

Antipeptide = test system: Antipeptide
Procedure: as §1, §2, §3, §4

Compound: CC(N)CC(=O)O (racemic) [BABA, DL-3-aminobutyric acid]
- Expression of induced resistance gene, PR_2 family (PR_2 family): 0.43
- Expression of induced resistance gene, Heat shock 70 (Heat shock 70): 0.59
- Expression of induced resistance gene, PR_5 family (PR_5 family): 0.92
- Expression of induced resistance gene, PR_10 family (PR_10 family): 1.23
- Expression of induced resistance gene, PR_9 family (PR_9 family): 0.43
- Expression of induced resistance gene, Hydroxyproline (Hydroxyproline): 0.36
- Expression of induced resistance gene, Extensin (Extensin): 0.78
- Expression of induced resistance gene, PR_4 family (PR_4 family): 7.01
- Expression of induced resistance gene, PR_1b family (PR_1b family): 0.48
- Expression of induced resistance gene, Metallothionein (Metallothionein): 1.17
- Expression of induced resistance gene, PR_3 family class 4 (PR_3 family class 4): 0.51
- Expression of induced resistance gene, PR_3 family class 1 (PR_3 family class 1): 0.81
- Expression of induced resistance gene, Xyloglucan (Xyloglucan): 0.53
- Expression of induced resistance gene, Antipeptide (Antipeptide): 0.4
